# Key:
# VEGFR-2 = assay: Western blot assay, VEGFR-2 expression; format: cell-based, human; settings: EAHY926, 7.8 μM, 24 hours, FIG. 12
# Description: (§1) In the literature, nitric oxide releasing agents have the potential for promoting angiogenesis and wound healing in vivo, and are also clinically useful agents that can effectively promote the expression of vascular endothelial growth factor receptor 2 (VEGFR2). Therefore, this experiment intended to test the effect of the respective various nitric oxide releasing agents on the expression of angiogenesis-related proteins (e.g., TIE-2, and VEGFR-2).
# (§2) EAHY926 cells were seeded in cell culture dishes at 37° C. […] After 24 hours incubation, the cultures were washed with PBS three times and added 250 microliters (μL) of cell lysis buffer, then the cells were scraped and the proteins of the cells were extracted for Western blot experiment.
# EAHY926 cells [1] = assay: Cell viability assay (MTT); format: cell-based, human; settings: EAHY926, 24 hours, 37° C., at various concentrations, FIG. 4
# From the text: (§3) In the present disclosure, the cell line for the cell experiment is EAHY926 (human vascular endothelial cell line), and the mouse strain for the animal experiment is BALB/c Nude mouse.
# (§4) In this experiment, 3-(4,5-cimethylthiazol-2-yl)-2,5-diphenyl tetrazolium bromide (also called MTT) was used for testing cell viability. MTT is a yellow compound and a dye that accepts hydrogen ions and acts on the respiratory chain of living cell mitochondria. Under the action of succinate dehydrogenase (SDH) and cytochrome C, the tetrazolium ring of MTT will be cracked to generate blue color crystals. The formation of crystals is proportional to the number of living cells (in dead cells, because there is no active succinate dehydrogenase, MTT cannot be reduced). The O.D value can indirectly represent cell viability because of the MTT reduction ability of living cells.
# [2] = test system: zebrafish with fluorescence gene Tg (fli1: EGFP) y1; assay: In vivo angiogenesis assay in zebrafish; settings: 7.8 μM
# Description: In this experiment, zebrafish with fluorescence gene Tg (fli1: EGFP) y1 were used for in vivo angiogenesis analysis. The zebrafish nutrient solutions were respectively added with the respective various nitric oxide releasing agents at 7.8 μM concentration. The zebrafish were incubated with nitric oxide releasing agents for 24 to 48 hours. The confocal microscopy images were taken at the beginning, the 24th hour, and the 48th hour after incubation, and semi-quantitative analysis of neovascularization in zebrafish oocysts was performed.
# FIGS. 14A to 14E show images taken within the first hour after addition of the nitric oxide releasing agents. FIGS. 15A to 15E are images taken within the 24th hour after addition of the nitric oxide releasing agents. FIGS. 16A to 16E are images taken within the 48th hour after addition of nitric oxide releasing agents. Neovascularization in the zebrafish oocyst area is indicated by the white arrows.
# EAHY926 cells [3] = assay: Cell development index assay (Angiogenesis Analyzer for ImageJ); format: cell-based, human; settings: EAHY926, 7.8 μM, 24th hour; for numbers of endothelial junctions (rank of effects): FIG. 7A; for numbers of endothelial meshes (rank of effects): FIG. 7B; for total branching lengths (rank of effects): FIG. 7C
# Description: as §3
# EAHY926 cells were seeded in cell culture plates at 37° C. […] Microscopic images were taken within the first hour and the 24th hour after the addition of nitric oxide releasing agents, and the images were analyzed by “Angiogenesis Analyzer for ImageJ” software for analyzing cell development index. The analyzed cell development parameters include cell meshes, cell junctions and cell branches.
# Please refer to FIGS. 5A to 5H and FIGS. 6A to 6H. In the analysis of cell development, the gray lines were represented as cell branches of the cell-cell junction, and the more lines mean more growth of the cells. In addition, when the cells were more developed because they had more cell branches, the cells were represented by white lines. As the degree of cell development increased, cell junctions (dark gray dots) became more. Further, the cells enclosed multiple circles (black lines) which were called cell meshes.
# TIE-2 = assay: Western blot assay, TIE-2 expression; format: cell-based, human; settings: EAHY926, 7.8 μM, 24 hours, FIG. 12
# Description: as §1, §2
# [4] = test system: Immunodeficient nude mice; assay: In vivo angiogenesis assay (DIVAA) in mice; parameters: species or system mouse; settings: soft tubes implanted in the back, 7.8 μM, twenty days, FIG. 13
# From the text: as §3
# Immunodeficient nude mice (6 in each group) were fixed on the operating table and anesthetized (1-3% isoflurane/100% oxygen, flow rate 1 L/min). After the mice were fixed, two 1 cm incisions were respectfully cut on the left and right back of the mice with a surgical knife. Soft tubes containing mixtures of cell nutrient agents and 7.8 μM of respective nitric oxide releasing agents were prepared. These soft tubes were implanted into the back of the mice, then the wounds were washed with normal saline and were stitched. After 20 days, the soft tubes were removed and the hemoglobins within the soft tubes were released. The total amounts of hemoglobin were analyzed by ELISA analyzer for obtaining the correlation parameters of angiogenesis.
# The control group was the conditioned of the soft tube without nitric oxide releasing agents.
# EAHY926 cells [5] = assay: Wound healing assay (in vitro scratch); format: cell-based, human; settings: EAHY926, 7.8 μM, 1 mm wide line, 24th hour, FIGS. 9A-9I
# Description: as §3
# EAHY926 cells were seeded in cell culture plates at 37° C. […] A 1 millimeter (mm) wide line was scraped off in a culture plate, and images of the culture were taken within the first hour and the 24th hour to record and quantify the percentage of wound healing.
# chicken embryos = assay: Chicken chorioallantoic membrane assay (CAM); format: in vivo; settings: 7.8 μM injected into eggs after 6 days incubation, 2 days of culture, FIG. 20
# Description: In this experimental example, the insemination eggs were placed on the egg rack and the eggs' gas chamber were placed upwards in the hatching incubator. After incubation for 6 days, the eggs were screened with an egg detector, and the insemination eggs with hatching embryos were selected. Then, small holes were respectively drilled on the air chamber end (blunt end) and a side of the selected eggs, and 7.8 μM of the respective various nitric oxide releasing agents were injected through the small holes at the blunt end, sterilized filter films were covered on the hole of the air chamber, and then ventilation tapes were put on. The eggs were continuously incubated in the incubator. After 2 days of culture, the eggs were poked and placed in Petri dishes to observe and recorded by a camera.
# The condition of the control group was the eggs with no addition of nitric oxide releasing agents.
# EAHY926 cells [6] = assay: Cell viability (MTT) of the cell cultures of the wound healing test; format: cell-based, human; settings: EAHY926, 7.8 μM, FIG. 11
# From the text: as §4
# In the present experimental example, then the cell viability was assayed by adding MTT reagent to the various cell cultures of wound healing test. The results are shown in FIG. 11, among all of the groups, the group treated with RRE-1 had the highest cell viability. The result corresponds to the result of FIG. 4. In FIG. 11, the effects of cell viability were ranked as RRE-1>DPTA>MAHMA. The trend is similar to the result of FIG. 10.
Compound,expression of protein VEGFR-2 (Western blot) (VEGFR-2),"promotion of cell growth (cell viability, MTT) (EAHY926 cells [1])","angiogenesis (neovascularization in zebrafish), overall statement ([2]; 24 to 48 hours)",numbers of endothelial junctions (rank of effects) (EAHY926 cells [3]),numbers of endothelial meshes (rank of effects) (EAHY926 cells [3]),total branching lengths (rank of effects) (EAHY926 cells [3]),expression of protein TIE-2 (Western blot) (TIE-2),angiogenesis inside the soft tubes (total amounts of hemoglobin) [4],effect on wound healing (images) (EAHY926 cells [5]),angiogenesis of chicken embryos (CAM) (chicken embryos),cell viability (MTT) after wound healing test (EAHY926 cells [6]),"angiogenesis (neovascularization in zebrafish oocyst area) ([2]; 24 hours, FIG. 17)"
VEGF,only induced a small amount,does not work better than other commercially available nitric oxide-releasing agents,not effective as expected,RRE-1>VEGF>Spermine>MAHA,RRE-1>VEGF>MAHMA>Spermine,RRE-1>Spermine>VEGF>MAHMA,only induced a small amount,followed by VEGF and Spermine,more significant effects on wound healing,,,
NCCCNCCCCNCCCN [Spermine],only induced a small amount,,,RRE-1>VEGF>Spermine>MAHA,RRE-1>VEGF>MAHMA>Spermine,RRE-1>Spermine>VEGF>MAHMA,only induced a small amount,followed by VEGF and Spermine,more significant effects on wound healing,similar,,
"CNCCCCCCN(C)/[N+]([O-])=N/O [MAHMA, (Z)-1-[N-Methyl-N-[6-(N-methylammoniohexyl)amino]]diazen-1-ium-1,2-diolate]",only induced a small amount,,,RRE-1>VEGF>Spermine>MAHA,RRE-1>VEGF>MAHMA>Spermine,RRE-1>Spermine>VEGF>MAHMA,only induced a small amount,,,,RRE-1>DPTA>MAHMA,most effective
"1-(hydroxy-NNO-azoxy)-L-proline, disodium salt",,,,,,,,,more significant effects on wound healing,,,
"NCCCN(CCCN)/[N+]([O-])=N/O [DPTA, (Z)-1-[N-(3-aminopropyl)-N-(3-ammoniopropyl)amino]diazen-1-ium-1,2-diolate]",,,,,,,,,more significant effects on wound healing,,RRE-1>DPTA>MAHMA,

# Reference: patent US10166211B1, “Nitric oxide releasing compound, pharmaceutical composition, use and synthesis method thereof” (NATIONAL CHIAO TUNG UNIVERSITY, priority 2017, dated 2019)
